In ChEMBL document CHEMBL2429778, “Hydroxyclerodanes from Salvia shannoni” (J Nat Prod, 2013):
In brackets after ≈: the same amount, converted by molar mass.

Tests used:
MCF7 = experiment: Cytotoxicity against human MCF7 cells after 48 hrs by SRB method; assay type: functional, cell-based; details: MCF7, 48 h
SK-LU-1 = experiment: Cytotoxicity against human SKLU1 cells after 48 hrs by SRB method; assay type: functional, cell-based; details: SK-LU-1, 48 h
Mus musculus = experiment: Antiinflammatory activity against TPA-induced CD-1 mouse ear edema model assessed as swelling per ear after 4 hrs relative to control; assay type: functional, organism-based
PC-3 = experiment: Cytotoxicity against human PC3 cells after 48 hrs by SRB method; assay type: functional, cell-based; details: PC-3, 48 h
Entamoeba histolytica = experiment: Antiprotozoal activity against clinical isolates of Entamoeba histolytica HM-1:IMSS; assay type: functional, organism-based
U-251 = experiment: Cytotoxicity against human U251 cells after 48 hrs by SRB method; assay type: functional, cell-based; details: U-251, 48 h
Giardia intestinalis = experiment: Antiprotozoal activity against clinical isolates of Giardia lamblia IMSS:8901:1; assay type: functional, organism-based; details: Giardia duodenalis
K562 = experiment: Cytotoxicity against human K562 cells after 48 hrs by SRB method; assay type: functional, cell-based; details: K562, 48 h
HCT-15 = experiment: Cytotoxicity against human HCT15 cells after 48 hrs by SRB method; assay type: functional, cell-based; details: HCT-15, 48 h

SMILES | IC50 (Mus musculus) [µmol] | IC50 (Entamoeba histolytica) [µg/mL] | IC50 (Giardia intestinalis) [µg/mL] | IC50 (MCF7) [µM] | IC50 (SK-LU-1) [µM] | IC50 (PC-3) [µM] | IC50 (U-251) [µM] | IC50 (K562) [µM] | IC50 (HCT-15) [µM]
C[C@]12C[C@H](c3ccoc3)OC(=O)[C@H]1CC[C@@]13COC(=O)[C@H]1C[C@@H]1O[C@@H]1[C@]32O | > 1 | 56.8 (≈ 152 µM) | 63.3 (≈ 169 µM) | > 50 | > 50 | > 50 | > 50 | > 50 | > 50
C[C@]12C[C@H](c3ccoc3)OC(=O)[C@@]1(O)CC[C@@]13COC(=O)[C@H]1CC=C[C@]32O | – | 79.7 (≈ 213 µM) | 85.8 (≈ 229 µM) | – | – | – | – | – | –
C[C@]12C[C@H](c3ccoc3)OC(=O)[C@H]1CC[C@@]13COC(=O)[C@H]1CC=C[C@]32O | > 1 | 84.7 (≈ 236 µM) | 94.8 (≈ 265 µM) | > 50 | > 50 | > 50 | > 50 | > 50 | > 50
C[C@]12C[C@H](c3ccoc3)OC(=O)[C@@]1(O)CC[C@@]13COC(=O)[C@H]1CC=C[C@H]32 | > 1 | 63.3 (≈ 177 µM) | 73.1 (≈ 204 µM) | > 50 | > 50 | > 50 | > 50 | > 50 | > 50
C[C@]12C[C@H](c3ccoc3)OC(=O)[C@@]1(O)CC[C@@]13COC(=O)[C@]1(O)CC=C[C@]23O | > 1 | 76.3 (≈ 195 µM) | 82.1 (≈ 210 µM) | > 50 | > 50 | > 50 | > 50 | > 50 | > 50
C[C@]12C[C@H](c3ccoc3)OC(=O)[C@@]1(O)CC[C@@]13COC(=O)C1=CC[C@H]1O[C@]132 [TEHUANINE G] | – | 71.2 (≈ 191 µM) | 86.4 (≈ 232 µM) | – | – | – | – | – | –
NCCc1ccc(O)cc1 [TYRAMINE] | – | 54.2 (≈ 395 µM) | 68.9 (≈ 502 µM) | – | – | – | – | – | –

Further lines, with some results ahead:

IC50 (Mus musculus) [µmol] | IC50 (Entamoeba histolytica) [µg/mL] | IC50 (Giardia intestinalis) [µg/mL] | SMILES | IC50 (MCF7) [µM] | IC50 (SK-LU-1) [µM] | IC50 (PC-3) [µM] | IC50 (U-251) [µM] | IC50 (K562) [µM] | IC50 (HCT-15) [µM]
> 1 | 56.5 (≈ 158 µM) | 42.4 (≈ 118 µM) | C[C@]12C[C@H](c3ccoc3)OC(=O)[C@@]1(O)CC[C@@]13COC(=O)[C@@H]1C=CC[C@@H]32 | > 50 | > 50 | > 50 | > 50 | > 50 | > 50
– | 57.4 (≈ 160 µM) | 71.7 (≈ 200 µM) | C[C@]12C[C@H](c3ccoc3)OC(=O)[C@H]1CC[C@@]13COC(=O)[C@@H]1C=C[C@@H](O)[C@H]23 | – | – | – | – | – | –
– | 65.6 (≈ 226 µM) | 33.9 (≈ 117 µM) | Oc1cc(O)c2c(c1)O[C@H](c1ccc(O)c(O)c1)[C@@H](O)C2 [CIANIDANOL] | – | – | – | – | – | –
